Experimental data published in patent US12590106B2, “Spiromacrocyclic orexin 2 receptor agonists” (H. Lundbeck A/S, priority 2023, dated 2026).
Read-outs that look alike come from different tables or passages of the source.

Target: T1, human Ox2R (Homo sapiens, UniProt O43614)
T1 construct: The gene encoding hOx2R was subcloned into the expression plasmid pcDNA5/FRT/TO; expressed in transfected cells; host or cells: CHO Flp-In cells (pcDNA5/FRT/TO with pOG44 Flp recombinase vector, hygromycin B selection)
T1 sequence (O43614 1-444): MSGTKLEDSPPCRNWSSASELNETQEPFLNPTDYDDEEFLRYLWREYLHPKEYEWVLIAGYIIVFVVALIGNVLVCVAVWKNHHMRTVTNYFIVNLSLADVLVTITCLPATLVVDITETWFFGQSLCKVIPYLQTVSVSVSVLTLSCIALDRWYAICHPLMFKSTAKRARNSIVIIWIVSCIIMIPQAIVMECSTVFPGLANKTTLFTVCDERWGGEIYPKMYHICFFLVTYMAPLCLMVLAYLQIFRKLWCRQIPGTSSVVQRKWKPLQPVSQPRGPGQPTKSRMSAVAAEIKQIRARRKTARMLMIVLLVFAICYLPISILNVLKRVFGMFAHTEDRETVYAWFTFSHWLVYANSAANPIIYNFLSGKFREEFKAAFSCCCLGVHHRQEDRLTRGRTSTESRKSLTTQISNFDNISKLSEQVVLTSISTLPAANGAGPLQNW
Experiment: Measurement of OX2R agonist activity (cell-based calcium release assay)
Conditions: for EC50: intracellular calcium
Excerpt: Measurement of OX2R Agonist Activity
The Ox2R has a broad signaling profile and couple to a range of different Gα-proteins. The cell-based calcium release assay is primarily assessing signaling through the Gαq signaling pathway, which promotes calcium mobilization via inositol triphosphate production upon activation of Ox2R.
A CHO Flp-In cell-line stably expressing the human Ox2R (hOx2R-CHO Flp-In) was established as follows: The gene encoding hOx2R was subcloned into the expression plasmid pcDNA5/FRT/TO and then transfected into CHO Flp-In cells together with the Flp recombinase vector, pOG44. Cells were cultured in growth medium: Ham's F12 (Gibco), 10% fetal bovine serum (Gibco) and 100 U/mL penicillin-streptomycin (Gibco) supplemented with hygromycin B (Thermo Fisher Scientific) as selection marker at 37° C. in the presence of 5% CO2.
To prepare the hOx2R-CHO FlpIn cells for calcium release assay, the cells were suspended in growth medium and seeded in black, clear-bottomed 384-well plates (Corning) at 10,000 cells/well. The plated cells were grown overnight at 37° C. and 5% CO2. The following day, the media was removed, and the cells were incubated with assay buffer (HBSS with 20 mM HEPES, pH 7.4) containing 2.5 mM probenecid (Thermo Fisher Scientific), 10 mM CaCl2, 0.1% pluronic F68 (Gibco) and 1× calcium-4 dye (Molecular Devices) for 1 h at 37° C. and 5% CO2. After incubation, cells were allowed to equilibrate at room temperature for 15 minutes and then loaded into FDSS7000Ex system (Hamamatsu Photonics) together with a plate containing test compounds serially diluted in assay buffer. Cells were stimulated with test compounds (online injection) and the agonist activity was determined as an increase in intracellular calcium concentration measured from the ratio of fluorescence emission at 542 nm by excitation at 480 nm. The agonist response for each applied concentration was assessed as the ratio: maximum fluorescence/average pre-stimulated fluorescence and was normalized to responses from assay buffer alone (0% response) and 10 μM Danavorexton (100% response). EC50 and Emax values were calculated from concentration-response curves by using Genedata Screener software.

[1] = hOx2R-CHO Flp-In cells, n≥2 tests, read-out: EC50
[2] = hOx2R-CHO Flp-In cells, normalized to assay buffer (0%) and 10 μM Danavorexton (100%), n≥2 tests, read-out: Emax (%)

SMILES | EC50 [1] [nM] | Emax [2] [%] | Emax [%] | EC50 (EC50 (nM), hOx2R-CHO Flp-In cells, n≥2 tests) [nM] | Emax (%) (hOx2R-CHO Flp-In cells, normalized to assay buffer (0%) and 10 μM Danavorexton (100%), n≥2 tests)
CS(=O)(=O)N[C@H]1CC[C@@]2(Cc3ccc(F)c(c3)-c3cccc(F)c3OCC3=CN=C2O3)C1 [Example 7, N-[(1′S,14R)-6,19-difluorospiro[8,21-dioxa-12-azatetracyclo[14.3.1.110,13.02,7]henicosa-1(19),2,4,6,10,12,16(20),17-octaene-14,3′-cyclopentane]-1′-yl]methanesulfonamide] | 21 | 99 |  |  | 
CS(=O)(=O)N[C@H]1CC[C@@]2(CO[C@H]3CC[C@H](CC3)c3nccc(n3)OCc3coc2n3)C1 [Example 1, N-[(1s,1′S,13S,16s)-spiro[7,11,15-trioxa-3,21,22-triazatetracyclo[14.2.2.12,6.19,12]docosa-2,4,6(22),9,12(21)-pentaene-13,3′-cyclopentane]-1′-yl]methanesulfonamide] | 9.7 | 98 |  |  | 
O=S(=O)(N[C@H]1CC[C@@]2(Cc3ccc(F)c(c3)-c3cccc(F)c3OCc3coc2n3)C1)C(F)F [Example 115, N-[(1′S,14R)-6,19-difluorospiro[8,12-dioxa-21-azatetracyclo[14.3.1.110,13.02,7]henicosa-1(20),2,4,6,10,13(21),16,18-octaene-14,3′-cyclopentane]-1′-yl]-1,1-difluoro-methanesulfonamide] | 0.37 | 97 |  |  | 
CS(=O)(=O)N[C@H]1CC[C@@]2(Cc3cccc(c3)-c3ccccc3OCc3coc2n3)C1 [Example 38, N-[(1′S,14R)-spiro[8,12-dioxa-21-azatetracyclo[14.3.1.110,13.02,7]henicosa-1(20),2,4,6,10,13(21),16,18-octaene-14,3′-cyclopentane]-1′-yl]methanesulfonamide] | 4.3 | 99 |  |  | 
CS(=O)(=O)N[C@H]1CC[C@@]2(Cc3ccc(C(F)(F)F)c(c3)-c3ccccc3OCc3coc2n3)C1 [Example 24, N-[(1′S,14R)-19-(trifluoromethyl)spiro[8,12-dioxa-21-azatetracyclo[14.3.1.110,13.02,7]henicosa-1(19),2,4,6,10,13(21),16(20),17-octaene-14,3′-cyclopentane]-1′-yl]methanesulfonamide] | 5.2 | 98 |  |  | 
CS(=O)(=O)N[C@H]1CC[C@@]2(Cc3cc(ncc3F)-c3cccc(F)c3OCc3coc2n3)C1 [Example 105, N-[(1′S,14R)-6,17-difluorospiro[8,12-dioxa-19,21-diazatetracyclo[14.3.1.110,13.02,7]henicosa-1(20),2,4,6,10,13(21),16,18-octaene-14,3′-cyclopentane]-1′-yl]methanesulfonamide] | 6.1 | 97 |  |  | 
C[C@H]1C[C@H](NS(C)(=O)=O)C[C@]12Cc1ccc(F)c(c1)-c1cccc(F)c1OCc1ccnc2n1 (single isomer, unassigned) [Example 94, N-[(1′S,4′S,15R)-6,20-difluoro-4′-methyl-spiro[8-oxa-13,22-diazatetracyclo[15.3.1.110,14.02,7]docosa-1(20),2,4,6,10,12,14(22),17(21),18-nonaene-15,3′-cyclopentane]-1′-yl]methanesulfonamide or N-[(1′R,4′R,15S)-6,20-difluoro-4′-methyl-spiro[8-oxa-13,22-diazatetracyclo[15.3.1.110,14.02,7]docosa-1(20),2,4,6,10,12,14(22),17(21),18-nonaene-15,3′-cyclopentane]-1′-yl]methanesulfonamide] |  |  | 94 | 6.7 | 
CS(=O)(=O)N[C@H]1CC[C@]2(CC1)Cc1ccc(F)c(c1)-c1cccc(F)c1OCc1coc2n1 [Example 97, trans-N-(6,19-difluorospiro[8,12-dioxa-21-azatetracyclo[14.3.1.110,13.02,7]henicosa-1(19),2,4,6,10,13(21),16(20),17-octaene-14,4′-cyclohexane]-1′-yl)methanesulfonamide] | 0.39 | 96 |  |  | 
CS(=O)(=O)N[C@H]1CC[C@@]2(Cc3ccc(F)c(c3)-c3cccc(F)c3OCc3csc2n3)C1 [Example 46, N-[(1′S,14R)-6,19-difluorospiro[8-oxa-12-thia-21-azatetracyclo[14.3.1.110,13.02,7]henicosa-1(19),2,4,6,10,13(21),16(20),17-octaene-14,3′-cyclopentane]-1′-yl]methanesulfonamide] | 0.14 | 99 |  |  | 
CS(=O)(=O)N[C@H]1CC[C@]2(CC1)Cc1ccc(F)c(c1)-c1cccc(F)c1OCc1ccnc2n1 [Example 108, trans-N-(6,20-difluorospiro[8-oxa-13,22-diazatetracyclo[15.3.1.110,14.02,7]docosa-1(21),2,4,6,10,12,14(22),17,19-nonaene-15,4′-cyclohexane]-1′-yl)methanesulfonamide] | 0.45 | 98 |  |  | 
C[C@@H]1C[C@@H](NS(C)(=O)=O)C[C@@]12Cc1ccc(F)c(c1)-c1ccccc1OCc1coc2n1 [Example 63, N-[(1′R,4′R,14S)-19-fluoro-4′-methyl-spiro[8,12-dioxa-21-azatetracyclo[14.3.1.110,13.02,7]henicosa-1(19),2,4,6,10,13(21),16(20),17-octaene-14,3′-cyclopentane]-1′-yl]methanesulfonamide or N-[(1′S,4′S,14R)-19-fluoro-4′-methyl-spiro[8,12-dioxa-21-azatetracyclo[14.3.1.110,13.02,7]henicosa-1(19),2,4,6,10,13(21),16(20),17-octaene-14,3′-cyclopentane]-1′-yl]methanesulfonamide] | 1.4 |  |  |  | 100
[2H]C1([2H])Oc2ccccc2-c2cc(ccc2F)C[C@@]2(CC[C@H](NS(C)(=O)=O)C2)c2nc1co2 [Example 5, N-[(1′S,14R)-9,9-dideuterio-19-fluoro-spiro[8,12-dioxa-21-azatetracyclo[14.3.1.110,13.02,7]henicosa-1(19),2,4,6,10,13(21),16(20),17-octaene-14,3′-cyclopentane]-1′-yl]methanesulfonamide] | 0.36 | 100 |  |  | 
CS(=O)(=O)N[C@H]1CC[C@@]2(Cc3cccc(c3)-c3cccc(c3)OCc3ccnc2n3)C1 [Example 86, N-[(1′S,14R)-spiro[7-oxa-12,21-diazatetracyclo[14.3.1.12,6.19,13]docosa-1(20),2,4,6(22),9,11,13(21),16,18-nonaene-14,3′-cyclopentane]-1′-yl]methanesulfonamide] | 90 | 100 |  |  | 
CS(=O)(=O)N[C@H]1CC[C@@]2(Cc3cccc(n3)-c3ccccc3OCc3coc2n3)C1 [Example 80, N-[(1′S,14S)-spiro[8,12-dioxa-20,21-diazatetracyclo[14.3.1.110,13.02,7]henicosa-1(20),2,4,6,10,13(21),16,18-octaene-14,3′-cyclopentane]-1′-yl]methanesulfonamide] | 9900 | 66 |  |  | 
CS(=O)(=O)N[C@H]1CC[C@@]2(Cc3ccc(F)c(c3)-c3ccc(F)cc3OCc3coc2n3)C1 [Example 15, N-[(1′S,14R)-5,19-difluorospiro[8,12-dioxa-21-azatetracyclo[14.3.1.110,13.02,7]henicosa-1(19),2,4,6,10,13(21),16(20),17-octaene-14,3′-cyclopentane]-1′-yl]methanesulfonamide] | 8.1 | 98 |  |  | 
[2H]C1([2H])Oc2c(F)cccc2-c2cc(ccc2F)C[C@@]2(CC[C@H](NS(C)(=O)=O)C2)c2nc1co2 [Example 6, N-[(1′S,14R)-9,9-dideuterio-6,19-difluoro-spiro[8,12-dioxa-21-azatetracyclo[14.3.1.110,13.02,7]henicosa-1(19),2,4,6,10,13(21),16(20),17-octaene-14,3′-cyclopentane]-1′-yl]methanesulfonamide] | 0.11 | 100 |  |  | 
